Measured values reported in paper PMC10545732, “Structure-based drug discovery of a corticotropin-releasing hormone receptor 1 antagonist using an X-ray free-electron laser” (Experimental & Molecular Medicine, 2023).
Entries after “also recorded” stand apart in the source; their conditions may differ.

Legend:
CRF1R = target: T1, CRF1R (Homo sapiens, UniProt P34998); test: Calcium mobilization assay (hCRF1R Ca2+ antagonism); type: cell-based; details: for IC50: HEK-Gα15 cells transfected with CRF1R, urocortin 2 nM, n = 3
T1 construct: HEK-Gα15 cells (Eurofins Scientific) transfected with CRF1R; host or cells: HEK-Gα15 cells
T1 sequence (P34998 24-415): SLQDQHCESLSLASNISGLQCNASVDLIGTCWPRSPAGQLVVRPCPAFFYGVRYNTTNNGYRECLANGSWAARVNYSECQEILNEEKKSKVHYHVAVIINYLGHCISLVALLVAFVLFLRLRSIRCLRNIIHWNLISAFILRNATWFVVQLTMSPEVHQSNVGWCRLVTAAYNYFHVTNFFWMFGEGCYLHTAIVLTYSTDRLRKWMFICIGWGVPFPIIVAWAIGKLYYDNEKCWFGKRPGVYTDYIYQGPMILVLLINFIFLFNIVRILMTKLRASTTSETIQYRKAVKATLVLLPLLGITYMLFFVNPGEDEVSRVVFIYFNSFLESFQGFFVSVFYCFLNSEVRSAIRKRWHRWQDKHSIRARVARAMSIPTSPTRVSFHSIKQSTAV
Protocol: HEK-Gα15 cells (Eurofins Scientific) transfected with CRF1R were plated in 96-well plates at a density of 50,000 cells/100 μL per well and incubated overnight. The next day, the cells were incubated with a Calcium 6 reagent (Molecular Devices) containing 0.5 mM probenecid (Sigma) at 37 °C for 1 h before adding compounds or dimethyl sulfoxide DMSO (positive and negative control; final concentration 0.1%). After incubation at 37 °C for 1 h, 50 μL urocortin (final concentration 2 nM) (Tocris) was dispensed into the well with FLIPR-tetra (Molecular Devices). […] Intracellular calcium changes were recorded at excitation and emission wavelengths of 470–495 and 515–575 nm, respectively. Relative fluorescence units (RFU) were calculated as the fluorescence signal maximum minus the signal minimum for 30 s after addition. The graphs and IC50 concentrations were calculated using GraphPad Prism 6 software.

CYP1A2 = target: T2, CYP1A2 (Homo sapiens, UniProt P05177); test: CYP inhibition assay CYP1A2 (phenacetin O-demethylase); type: in vitro ADME; details: 10 μM, human liver microsomes, n = 3
T2 construct: 0.25 mg/mL human liver microsomes; from tissue; host or cells: human liver microsomes
T2 sequence (P05177 1-516): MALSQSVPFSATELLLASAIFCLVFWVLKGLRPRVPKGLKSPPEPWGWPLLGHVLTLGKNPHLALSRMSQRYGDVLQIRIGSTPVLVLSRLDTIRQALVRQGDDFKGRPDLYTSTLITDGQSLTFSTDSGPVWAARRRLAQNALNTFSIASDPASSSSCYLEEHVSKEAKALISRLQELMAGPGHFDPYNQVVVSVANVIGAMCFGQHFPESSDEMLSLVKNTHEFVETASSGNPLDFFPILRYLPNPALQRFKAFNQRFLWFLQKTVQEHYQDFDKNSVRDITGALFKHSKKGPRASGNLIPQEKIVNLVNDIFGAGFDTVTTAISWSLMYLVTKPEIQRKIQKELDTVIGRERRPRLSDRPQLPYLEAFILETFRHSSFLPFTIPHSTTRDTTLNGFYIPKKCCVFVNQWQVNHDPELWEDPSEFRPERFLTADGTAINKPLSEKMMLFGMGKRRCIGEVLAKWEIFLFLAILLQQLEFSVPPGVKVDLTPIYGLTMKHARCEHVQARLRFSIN
Protocol: (§1) Phenacetin O-demethylase, diclofenac 4-hydroxylase, S-mephenytoin 4-hydroxylase, dextromethorphan O-demethylase, and midazolam 1’-hydroxylase activities were determined as probe activities for CYP1A2, CYP2C9, CYP2C19, CYP2D6, and CYP3A4, respectively, using cocktail incubation. […] The cocktail incubation mixtures consisted of 0.25 mg/mL human liver microsomes, 0.1 M phosphate buffer (pH 7.4), an NADPH regeneration system, and inhibitors (CRF1R antagonist compounds, 10 µM) in a total volume of 100 μL. The final volume of the organic solvents in the incubation mixture was 1% (v/v). […] All incubations were performed in triplicate, and the mean values were used for analysis. The samples were then centrifuged at 15,000 rpm for 5 min at 4 °C. […] The CYP-mediated activities in the presence of inhibitors were expressed as percentages of the corresponding control values.

CYP2C19 = target: T3, CYP2C19 (Homo sapiens, UniProt P33261); test: CYP inhibition assay CYP2C19 (S-mephenytoin 4-hydroxylase); type: in vitro ADME; details: 10 μM, human liver microsomes, n = 3
T3 construct: 0.25 mg/mL human liver microsomes; from tissue; host or cells: human liver microsomes
Protocol: as §1

PK studies in rats = type: in vivo, SD rats; details: for AUC(0-t) / half-life / Cmax / Tmax / bioavailability: male, Sprague-Dawley, rat, plasma, SD rats, n = 3
Protocol: CRF1R antagonist PKs were studied in naïve male SD rats following a single i.v. bolus injection or p.o. gavage. The i.v. injections used Antalarmin, BMK-C203, or BMK-C205 at doses of 5 mg/kg and BMK-I-152 at a dose of 1 mg/kg. The antagonist’s doses in the p.o. injection was 10 mg/kg. Three male SD rats weighing between 220 and 260 g were used to evaluate CRF1R antagonist PKs. The vehicle used for all dose groups was […]: TPGS: PEG400 (70%:20%:10%). Blood samples were collected from all treatment groups at 0 h (predose), 0.083, 0.25, 0.5, 1, 2, 4, 6, 8, and 24 h after dosing. Antalarmin, BMK-I-152, BMK-C203, and BMK-C205 concentrations in the plasma samples were determined via LC‒MS/MS (LLOQ was 1 ng/mL for CRF1R antagonists). PK parameter estimates were determined using the serial time-course profiles for plasma concentrations of three male rats per group via noncompartmental analysis using commercially available software (Phoenix WinNonlin, version 8.1, Pharsight Corporation, Mountain View, CA).

ACTH serum levels = test: Serum ACTH level after TST (ELISA); type: in vivo, mice; details: 30 mg/kg orally for 3 days, immediately after TST
Protocol: The mice were anesthetized via intraperitoneal injections of 2,2,2-tribromoethanol (300 mg/kg, Sigma-Aldrich) immediately after the TST and before blood from the heart was sampled. Blood samples were collected in plastic tubes and incubated at room temperature for at least 2 h. The sera were extracted after centrifugation at 13,000×g for 10 min at 4 °C. CORT levels were determined via LC‒MS analysis. Serum (10 µL) was mixed with 20 μL of an internal standard solution (d4-cortisol) to prepare the samples. Subsequently, 100 μL of acetonitrile was added, and the mixture was centrifuged at 16,000×g for 10 min for protein precipitation. The supernatants (60 μL) were transferred into an autosampler vial, and 30 μL of water was added for efficient separation via high-performance liquid chromatography (HPLC). LC‒MS was performed with a triple quadrupole mass spectrometer coupled with HPLC using a C18 reversed-phase column. CORT levels were determined using a calibration curve constructed using CORT-spiked mouse serum. Serum samples (20 μL) were analyzed using a commercially available ELISA kit for ACTH (ab263880, Abcam) to measure ACTH serum levels.

CYP2D6 = CYP2D6 (Homo sapiens, UniProt P10635); test: CYP inhibition assay CYP2D6 (dextromethorphan O-demethylase); details: 10 μM, human liver microsomes, n = 3
CYP2D6, sequence (P10635 whole entry): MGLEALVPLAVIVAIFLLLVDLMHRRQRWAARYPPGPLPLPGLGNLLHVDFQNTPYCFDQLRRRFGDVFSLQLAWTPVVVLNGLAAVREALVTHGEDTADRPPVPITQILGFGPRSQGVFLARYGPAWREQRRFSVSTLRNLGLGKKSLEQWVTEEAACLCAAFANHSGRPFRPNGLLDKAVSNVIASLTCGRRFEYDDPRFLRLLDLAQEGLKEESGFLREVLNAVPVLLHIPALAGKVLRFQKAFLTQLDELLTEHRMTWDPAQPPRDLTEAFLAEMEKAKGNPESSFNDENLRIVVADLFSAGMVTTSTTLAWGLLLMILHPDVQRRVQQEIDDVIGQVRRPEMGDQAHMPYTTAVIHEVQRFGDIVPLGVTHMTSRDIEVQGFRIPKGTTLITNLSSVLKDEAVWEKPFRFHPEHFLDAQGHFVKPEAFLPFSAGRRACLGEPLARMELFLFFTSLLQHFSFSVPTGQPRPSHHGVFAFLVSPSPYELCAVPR
Protocol: as §1

T3 sequence (P33261 whole entry): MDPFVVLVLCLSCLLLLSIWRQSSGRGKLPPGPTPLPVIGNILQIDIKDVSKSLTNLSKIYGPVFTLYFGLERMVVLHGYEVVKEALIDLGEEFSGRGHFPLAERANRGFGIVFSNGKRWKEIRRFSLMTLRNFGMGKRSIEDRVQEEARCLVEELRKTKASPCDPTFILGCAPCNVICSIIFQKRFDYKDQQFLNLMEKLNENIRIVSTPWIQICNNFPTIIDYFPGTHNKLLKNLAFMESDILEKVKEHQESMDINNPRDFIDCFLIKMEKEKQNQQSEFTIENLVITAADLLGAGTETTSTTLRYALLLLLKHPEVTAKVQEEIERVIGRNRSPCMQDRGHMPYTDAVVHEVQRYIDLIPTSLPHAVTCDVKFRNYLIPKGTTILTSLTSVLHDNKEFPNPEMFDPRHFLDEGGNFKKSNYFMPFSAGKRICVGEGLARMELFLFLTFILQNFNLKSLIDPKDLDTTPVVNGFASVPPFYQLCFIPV

Row | IC50 (CRF1R) [µM] | AUC(0-t) (PK studies in rats; iv, I.V, 5 mg/kg) [ng·h/mL] | half-life (PK studies in rats; iv, I.V, 5 mg/kg) [h] | AUC(0-t) (PK studies in rats; po, P.O, 10 mg/kg) [ng·h/mL] | Cmax (PK studies in rats; po, P.O, 10 mg/kg) [ng/mL] | Tmax (PK studies in rats; po, P.O, 10 mg/kg) [h] | bioavailability (PK studies in rats; po, P.O, 10 mg/kg) [%] | half-life (PK studies in rats; po, P.O, 10 mg/kg) [h] | IC50 relative to BMK-C203 (CRF1R; hCRF1R Ca2+ antagonism assay) | serum concentration relative to BMK-C203 (PK studies in rats; 2 h after oral administration in the PK test) | Structure (SMILES) | CYP1A2, percentage of control activity (CYP1A2) | CYP2C19, percentage of control activity (CYP2C19) | serum ACTH level versus vehicle (ACTH serum levels) | CYP2D6, percentage of control activity (CYP2D6)
1 | 0.28 | 20600 | 4.76 | 16100 | 1370 | 4.67 | 39.5 | 4.22 |  |  | COc1cc(Br)cc(OC)c1-c1c(C)nn2c(N(CCCC(F)(F)F)CCCC(F)(F)F)nc(C)nc12 [BMK-C203] | 95.6 ± 2.9 percentage of control activity | 83.2 ± 0.5 percentage of control activity | decreased; also recorded: lower than those in the vehicle group; also recorded: significantly affected | > 100 ± 4.0 percentage of control activity
2 | 0.074 | 22900 | 6.5 | 9880 | 2400 | 2 | 21.6 | 3.87 | fourfold lower | twice as high | CCCCN(CC1CC1)c1nc(C)nc2c(-c3c(OC)cc(Br)cc3OC)c(C)nn12 [BMK-C205] | > 100 ± 4.2 percentage of control activity | 89.7 ± 3.8 percentage of control activity | decreased; also recorded: lower than those in the vehicle group | > 100 ± 3.8 percentage of control activity
